Source: patent publication US10240133B2, “ERK-derived peptides and uses thereof” (Yeda Research and Development Co. Ltd., priority 2013, dated 2019)

Tests used:
[1] = system: PLX-4032 and U0126 resistant A2352 melanoma cells; experiment: Proliferation of inhibitor-resistant melanoma cells; format: cell-based
Description: (A) A2352 melanoma cells resistant to either PLX4032 (B-Raf) or U0126 (MEK) inhibitors were treated with DMSO, EPE or Scr peptide (10 μM), U0126 (10 μM), PLX4032 (1 μM), Wortmannin (0.5 μM) or Taxol (25 μg/ml). Presented as percent of viable cells at 72 h/initial cell number. […] Methylene blue assay was performed to quantify viable cells. Experiments were done twice in triplicate. Data presented as fold change.
A2352 cells were supplemented with either PLX4032 (B-Raf inhibitor, 1 μM), or U0126 (MEK inhibitor, 10 μM) for 45 days. […]

[2] = system: other cell lines examined; experiment: Apoptosis (TUNEL, PARP-1 cleavage); format: cell-based
Description: (§1) FIGS. 5A-5D illustrate that the EPE peptide leads to apoptosis of B-Raf mutant cancer cells. (A) The EPE peptide affects the morphology of treated cells. The indicated cells were treated with either the EPE or Scr peptides, DMSO, or taxol for 72 h, and photographed by a light microscope. (B) The EPE peptide induces apoptosis in melanoma cells detected by TUNEL. The indicated cell lines were treated as in A for 24 h. Apoptosis was detected by TUNEL staining. Images were obtained by florescence microscope. (C) Quantification of B. The bar-graph represents percent of apoptotic cells calculated in 10 different fields. (D) The EPE peptide induces apoptosis of melanoma cells detected by PARP cleavage. The indicated cell lines were treated as in (A) for 24 h. Cell extracts were subjected to Western blotting with αPARP Ab.
Cells were seeded on glass cover slips in a 12-wells plate at 25% confluence with medium containing 1% of FCS. Peptides (EPE or Scr), DMSO, or U0126 in a final concentration of 10 μM, were added after 4 h (considered as time “0”). TUNEL staining was performed at 24 h after the treatment according to manufacturer instruction (Roche Applied Science, Nutley, N.J., USA). Briefly, the medium was removed and cells were fixed with 3% of paraformaldehyde (1.5 h, 23° C.). Cells were rinsed twice with PBS and permeabilized with 0.1% Triton X-100 and 0.1% sodium citrate for 2 min on ice. Cells were rinsed twice with PBS and 28 μl of TUNEL reaction mixture (25 μl of TUNEL label, 2.5 μl of TUNEL enzyme and 0.1 mg/ml of DAPI) was added directly on top of the slide, cells were incubated for 16 h in humid box at 37° C. Cover slips were rinsed three times with PBS and mounted on microscope slides. The slides were dried and then subjected to image acquisition by a florescence microscope. For morphology assay, the cells were seeded at approximately 25% confluence in 6 cm plates with medium containing 1% FCS. Peptides (EPE and Scr) or DMSO or U0126 in a final concentration of 10 μM, were added after 4 h (considered to be time 0), 24 h and 48 h. Images were obtained by a light microscope (Olympus BX51) after 72 h.

[3] = system: ERK1/2; experiment: Nuclear translocation of ERK (fluorescence microscopy, subcellular fractionation); format: cell-based; conditions: HeLa cells
Description: FIGS. 1A-1F illustrate that EPE peptide prevents nuclear translocation of ERK1. A2352 (A), MDA-MB-231 (B) HeLa (C), T47D (D), NHEM-AD (E) and HB2 (F) cells were serum-starved, pretreated with the EPE peptides, Scr peptide (10 μM, 2 h) DMSO and then either stimulated with TPA (250 nM, 15 min) or left untreated (NS) as control. The cells were stained with αgERK1/2 Ab and DAPI. Scale-bar—15 μm.
FIGS. 12A-12D illustrate that the EPE peptide inhibits the nuclear translocation of ERK1/2. Serum-starved (0.1% FCS, 16 hr) A2352 (FIG. 12A), HeLa (FIG. 12B), MDA-MB-231 (FIG. 12C), or LOXMVI (FIG. 12D) cells were pretreated with EPE or scrambled peptides (10 μM, 2 hr). Cells were then stimulated with EGF (50 ng/ml) or left untreated, and then harvested. Subcellular fractionation of cytoplasm and nucleus was performed as below, and fractions were subjected to Western blot analysis with the indicated Abs. Subcellular Fractionation was performed as follows: Harvested cells were resuspended in 200 μl of buffer H containing 0.1% Nonidet P-40. The lysates were mixed vigorously and centrifuged immediately to yield supernatants containing the cytosolic fraction. Nuclear proteins were extracted by resuspending the nuclear pellets in 200 μl of extraction buffer, waiting on ice for 5 min, brief sonication (2×5 sec, 40 W, 4° C.), vigorous mixing, and centrifugation. Both cytosolic and nuclear fractions were subjected to Western blotting.
A2185 (A) and A2352 (B) B-Raf melanoma cells were serum-starved (16 hours, 0.1% FBS), and then either pretreated with the EPE peptides (10 μM, 2 hours) or left untreated. Then, the cells were stimulated with TPA ([…], 20 min), or left untreated (NS) DMSO as control. The cells were stained with either anti ERK1 (Santa Cruz, C16) or anti ERK2 (C14, Santa Cruz) Abs and DAPI. (C) Quantification of the number of cell in which ERK1 or ERK2 were mostly (>80%) localized in the nucleus was performed by counting 5 fields containing 100 cells per field.
FIGS. 15A-15B illustrate that the EPE peptide prevents nuclear accumulation/translocation of ERK1/2 in PLX4032-resistant melanoma cells. A2352 that were made resistant to PLX4032 (as described under Material and Methods) and A4132 PLX4032 resistant melanoma cell from patient were serum-starved (16 hours, 0.1%), pretreated with the EPE or scrambled peptide (10 μM, 2 hours) and then either stimulated with TPA (100 nM, 20 min) or left untreated (NT) as control. The cells were stained with αgERK1/2 Ab and DAPI.
Cells were fixed in 3% paraformaldehyde in PBS (20 min, 23° C.), and then permeabilized and blocked with 0.2% Triton X-100 in PBS-BSA (2%) for 20 min at 23° C. The fixed cells were sequentially incubated with appropriated Abs, (diluted in 10 μg/ml BSA/PBS) for 1 h, followed by either Cy-2 or rhodamine-conjugated secondary Abs and DAPI (diluted in BSA/PBS, 1:200) for 1 h. To follow the subcellular localization of the biotin-conjugated peptides, cells were incubated with Avidin-FITC (diluted in BSA/PBS 1:400) and DAPI. Slides were analyzed and photographed by a fluorescent microscope (Nikon, Japan, 600× magnification).

[4] = system: B-Raf melanoma cells; experiment: Morphology assay (light microscopy); format: cell-based; conditions: 10 μM
Description: as §1
Cells were seeded on glass cover slips in a 12-wells plate at 25% confluence with medium containing 1% of FCS. Peptides (EPE or Scr), DMSO, or U0126 in a final concentration of 10 μM, were added after 4 h (considered as time “0”). TUNEL staining was performed at 24 h after the treatment according to manufacturer instruction (Roche Applied Science, Nutley, N.J., USA). Briefly, the medium was removed and cells were fixed with 3% of paraformaldehyde (1.5 h, 23° C.). Cells were rinsed twice with PBS and permeabilized with 0.1% Triton X-100 and 0.1% sodium citrate for 2 min on ice. Cells were rinsed twice with PBS and 28 μl of TUNEL reaction mixture (25 μl of TUNEL label, 2.5 μl of TUNEL enzyme and 0.1 mg/ml of DAPI) was added directly on top of the slide, cells were incubated for 16 h in humid box at 37° C. Cover slips were rinsed three times with PBS and mounted on microscope slides. The slides were dried and then subjected to image acquisition by a florescence microscope. For morphology assay, the cells were seeded at approximately 25% confluence in 6 cm plates with medium containing 1% FCS. Peptides (EPE and Scr) or DMSO or U0126 in a final concentration of 10 μM, were added after 4 h (considered to be time 0), 24 h and 48 h. […]

[5] = system: N-Ras transformed melanoma cells LOXIMVI; experiment: Cell viability, EPE peptide compared with PLX4032; format: cell-based; conditions: EPE 10 μM, PLX4032 1 μM, 1% FCS
Description: (§2) FIGS. 3A-3B illustrate that EPE peptide prevents proliferation of cancer but not normal cells. (A) Effect of the EPE peptide on the proliferation of various cell lines. Sixteen cancer and four “normal” immortalized cell lines were treated with either EPE or scrambled peptides as described above. Viable cells were assayed by Methylene Blue at 48 or 72 hours after cell seeding. The data from at least three independent experiments is presented as percent of the amount of viable cells/initial cell number, where initial cell number was considered as 100. (B) Comparison of the effects of the EPE-peptide and Raf inhibitor PLX4032 on cell viability. NHEM-Ad, LOXIMVI, A2352, Hela MDA-MB-231, and DU-145 cells were treated with EPE peptide, scrambled peptide, (10 μM), PLX4032 (1 μM), DMSO control, or no treatment at 1% FCS. The number of cells was detected as above. The graphs present the kinetic of cell growth at the indicated times. All experiments were repeated 3 times in triplicates.
(§3) All cells, except of MCF-10A, were seeded into 12-well cell plates in 1% FBS medium. MCF-10A cells were seeded in their complete medium diluted 5 fold. DMSO, Scr peptide, EPE peptide, or U0126 (final concentration of 10 μM each) were added to the appropriated wells four hours later. Every day medium was changed to fresh one containing the same agents. The number of viable cells was measured by Methylene Blue assay at 72 h after cell seeding. Shortly, cells were fixed with 4% Formaldehyde for 2 h at 23° C., washed once with 0.1M Borate Buffer pH 8.5 and stained with of 1% Methylene Blue in 0.1M Borate Buffer for 10 min. Color was extracted by adding 0.1 M HCl for 3 h at 23° C., and examined at 595 nm. For time course experiments, viable cells were measured at 0, 24, 48, 72 and 96 h after cell seeding. For dose response experiments we treaded the cells with 0.1, 1, 3, 10, or 30 μM of peptides for 72 h, as described above.

[6] = system: non-transformed melanocytes (NHEM-Ad); experiment: Cell viability, EPE peptide compared with PLX4032; format: cell-based; conditions: EPE 10 μM, PLX4032 1 μM, 1% FCS
Description: as §2, §3

[7] = system: A2352 xenografts; experiment: Tumor disappearance and recurrence in A2352 xenografts, EPE peptide compared with PLX4032; format: in vivo, SCID mice
Description: FIGS. 6A-6B illustrate that the EPE peptide prevents the growth of human tumor xenografts. CD-1 nude mice were inoculated with MDA-MB-231, LOXIMVI and HCT-116 cells, and SKID mice were inoculated with A2352 cells. Upon tumors establishment, the mice were treated intravenously with the DMSO as well as EPE or Scr peptides in the indicated doses, 3 times a week. The results are averages of 5 mice in each experimental group. The X, Y, Z dimensions of the tumors were measured with a caliper, and the volume was calculated accordingly. The significance of all experiments was at least P<0.001. (B) The EPE peptide prevents tumor recurrence on melanoma xenograft. SCID mice were inoculated with A2352 cells. Upon establishment of tumors mice were treated intravenously with 15 mg/kg EPE peptide (n=7) or intraperitonealy with 15 mg/kg PLX4032 (n=5), at the indicated dose 3 times a week. Tumor size was recorded at the same time using a caliper. Following 3 weeks of treatment, mice were kept for further evaluation monitoring for any tumor recurrence of the effective treated melanoma xenografts. Experiment was concluded 110 days post inoculation (11 weeks after the last treatment) and the overall state of the animals was evaluated. sac=sacrificed, recur=recurrence, met=metastasis.
Tumor dimensions were measured with a digital sliding caliper.

CC(=O)O[C@H]1C(=O)[C@@]2(C)[C@H]([C@H](OC(=O)c3ccccc3)[C@]3(O)C[C@H](OC(=O)[C@H](O)[C@@H](NC(=O)c4ccccc4)c4ccccc4)C(C)=C1C3(C)C)[C@]1(OC(C)=O)CO[C@@H]1C[C@@H]2O [Taxol, reference compound]
effect in resistant compared with non-resistant cells [1]: as effective in non-resistant, as resistant cells
apoptosis / cell death [2]: clear ability to undergo a Taxol or H2O2-induced cell death

GQLNHILGILGSPSQED (Synthetic peptide (SPS)) [SPS peptide, NTS-derived peptide of ERK]
TPA-induced nuclear translocation of ERK [3]: prevented TPA-induced nuclear translocation of ERK

N#CC(=C(/N)Sc1ccccc1N)/C(C#N)=C(\N)Sc1ccccc1N [U0126, reference compound]
TPA-induced nuclear translocation of ERK [3]: inhibition
cell morphology [4]: A similar appearance, albeit a weaker one

CCCS(=O)(=O)Nc1ccc(F)c(C(=O)c2c[nH]c3ncc(-c4ccc(Cl)cc4)cc23)c1F [PLX4032, reference compound]
viability [5]: not sensitive to PLX4032
viability [6]: strong inhibitory effect
time to complete disappearance of tumors ([7]; 15 mg/kg, 3 times a week): 13 to 23 days
tumor disappearance ([7]; 15 mg/kg, 3 times a week, 3 weeks, EPE i.v. (n=7), PLX4032 i.p. (n=5), initial ~80 mm3 tumors): complete disappearance in three mice
time to development of resistance (one mouse) ([7]; during treatment): ≤ 13 days
mice with tumor recurrence ([7]; follow up for up to 11 weeks after last treatment): 3 out of 5

OO [H2O2]
apoptosis / cell death [2]: clear ability to undergo a Taxol or H2O2-induced cell death
